Assays:
Test in all cases: viability relative to DMSO control (fraction); higher = less drug effect (more viable cells)
Details in all cases: 48 h
[1] = test system: primary AML patient cells (S091)
Summary of the method: (§1)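 Cells were incubated for 48 h at 37 °C and 5% CO2 in RPMI-1640 with penicillin/streptomycin, L-glutamine and human serum, at 4 × 10^4 cells per well in 384-well plates with compounds pre-plated at five concentrations, one well each. These were primary mononuclear tumour cells, fresh or cryopreserved, Ficoll-isolated from blood or bone marrow or obtained from processed lymph node. Viability values are CellTiter-Glo luminescence relative to the median of 16 inner DMSO wells.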

[2] = test system: primary AML patient cells (S002)
Summary of the method: as §1

[3] = test system: primary T-PLL patient cells (S008)
Summary of the method: as §1

[4] = test system: primary AML patient cells (S025)
Summary of the method: as §1

[5] = test system: primary FL patient cells (S022)
Summary of the method: as §1

[6] = test system: primary AML patient cells (S037)
Summary of the method: as §1

[7] = test system: primary AML patient cells (S019)
Summary of the method: as §1

[8] = test system: primary AML patient cells (S089)
Summary of the method: as §1

[9] = test system: primary AML patient cells (S021)
Summary of the method: as §1

[10] = test system: primary ALL patient cells (S048)
Summary of the method: as §1

[11] = test system: primary MCL patient cells (S068)
Summary of the method: as §1

[12] = test system: primary AML patient cells (S011)
Summary of the method: as §1

[13] = test system: primary AML patient cells (S081)
Summary of the method: as §1

[14] = test system: primary AML patient cells (S055)
Summary of the method: as §1

SMILES: N#Cc1ccnc(N2C(=O)CC[C@H]2C(=O)N(c2cncc(F)c2)[C@H](C(=O)NC2CC(F)(F)C2)c2ccccc2Cl)c1 [AG-120]
- viability ([1]; 0.024 µM): 1.02
- viability ([1]; 0.12 µM): 0.975
- viability ([1]; 0.6 µM): 1.03
- viability ([1]; 3 µM): 1.56
- viability ([1]; 15 µM): 1.03
- viability ([2]; 0.024 µM): 0.901
- viability ([2]; 0.12 µM): 0.897
- viability ([2]; 0.6 µM): 0.849
- viability ([2]; 3 µM): 0.951
- viability ([2]; 15 µM): 0.766
- viability ([3]; 0.024 µM): 1.04
- viability ([3]; 0.12 µM): 1.09
- viability ([3]; 0.6 µM): 1.03
- viability ([3]; 3 µM): 1.04
- viability ([3]; 15 µM): 1.02
- viability ([4]; 0.024 µM): 1.04
- viability ([4]; 0.12 µM): 1.06
- viability ([4]; 0.6 µM): 0.85
- viability ([4]; 3 µM): 0.934
- viability ([4]; 15 µM): 0.826
- viability ([5]; 0.024 µM): 0.858
- viability ([5]; 0.12 µM): 0.833
- viability ([5]; 0.6 µM): 0.838
- viability ([5]; 3 µM): 0.905
- viability ([5]; 15 µM): 0.777
- viability ([6]; 0.024 µM): 1.04
- viability ([6]; 0.12 µM): 1.04
- viability ([6]; 0.6 µM): 0.952
- viability ([6]; 3 µM): 1.01
- viability ([6]; 15 µM): 0.888
- viability ([7]; 0.024 µM): 1.43
- viability ([7]; 0.12 µM): 1.43
- viability ([7]; 0.6 µM): 0.934
- viability ([7]; 3 µM): 1.34
- viability ([7]; 15 µM): 0.833
- viability ([8]; 0.024 µM): 0.664
- viability ([8]; 0.12 µM): 0.916
- viability ([8]; 0.6 µM): 0.818
- viability ([8]; 3 µM): 0.903
- viability ([8]; 15 µM): 0.827
- viability ([9]; 0.024 µM): 0.985
- viability ([9]; 0.12 µM): 0.875
- viability ([9]; 0.6 µM): 0.743
- viability ([9]; 3 µM): 0.761
- viability ([9]; 15 µM): 0.692
- viability ([10]; 0.024 µM): 0.828
- viability ([10]; 0.12 µM): 0.865
- viability ([10]; 0.6 µM): 0.735
- viability ([10]; 3 µM): 1.01
- viability ([10]; 15 µM): 0.745
- viability ([11]; 0.024 µM): 0.995
- viability ([11]; 0.12 µM): 1.02
- viability ([11]; 0.6 µM): 0.898
- viability ([11]; 3 µM): 1.05
- viability ([11]; 15 µM): 1.18
- viability ([12]; 0.024 µM): 1.76
- viability ([12]; 0.12 µM): 0.843
- viability ([12]; 0.6 µM): 0.852
- viability ([12]; 3 µM): 0.785
- viability ([12]; 15 µM): 0.657
- viability ([13]; 0.024 µM): 0.994
- viability ([13]; 0.12 µM): 1.01
- viability ([13]; 0.6 µM): 0.925
- viability ([13]; 3 µM): 1.11
- viability ([13]; 15 µM): 0.968
- viability ([14]; 0.024 µM): 1.11
- viability ([14]; 0.12 µM): 1.13
- viability ([14]; 0.6 µM): 1.01
- viability ([14]; 3 µM): 1.09
- viability ([14]; 15 µM): 0.964

SMILES: O=C1c2c(O)ccc(O)c2C(=O)c2c(NCCNCCO)ccc(NCCNCCO)c21 [Mitoxantrone]
- viability ([1]; 0.008 µM): 0.494
- viability ([1]; 0.04 µM): 0.563
- viability ([1]; 0.2 µM): 0.46
- viability ([1]; 1 µM): 0.118
- viability ([1]; 5 µM): 0.0676
- viability ([2]; 0.008 µM): 0.744
- viability ([2]; 0.04 µM): 0.443
- viability ([2]; 0.2 µM): 0.332
- viability ([2]; 1 µM): 0.334
- viability ([2]; 5 µM): 0.22
- viability ([3]; 0.008 µM): 1.02
- viability ([3]; 0.04 µM): 0.961
- viability ([3]; 0.2 µM): 0.502
- viability ([3]; 1 µM): 0.0553
- viability ([3]; 5 µM): 0.0424
- viability ([4]; 0.008 µM): 0.539
- viability ([4]; 0.04 µM): 0.399
- viability ([4]; 0.2 µM): 0.533
- viability ([4]; 1 µM): 0.0658
- viability ([4]; 5 µM): 0.0287
- viability ([5]; 0.008 µM): 0.953
- viability ([5]; 0.04 µM): 0.844
- viability ([5]; 0.2 µM): 0.804
- viability ([5]; 1 µM): 0.437
- viability ([5]; 5 µM): 0.229
- viability ([6]; 0.008 µM): 0.843
- viability ([6]; 0.04 µM): 0.581
- viability ([6]; 0.2 µM): 0.447
- viability ([6]; 1 µM): 0.345
- viability ([6]; 5 µM): 0.211
- viability ([7]; 0.008 µM): 0.647
- viability ([7]; 0.04 µM): 0.256
- viability ([7]; 0.2 µM): 0.282
- viability ([7]; 1 µM): 0.132
- viability ([7]; 5 µM): 0.0646
- viability ([8]; 0.008 µM): 0.339
- viability ([8]; 0.04 µM): 0.966
- viability ([8]; 0.2 µM): 0.0966
- viability ([8]; 1 µM): 0.0273
- viability ([8]; 5 µM): 0.0313
- viability ([9]; 0.008 µM): 0.66
- viability ([9]; 0.04 µM): 0.327
- viability ([9]; 0.2 µM): 0.265
- viability ([9]; 1 µM): 0.212
- viability ([9]; 5 µM): 0.106
- viability ([10]; 0.008 µM): 0.449
- viability ([10]; 0.04 µM): 0.0767
- viability ([10]; 0.2 µM): 0.113
- viability ([10]; 1 µM): 0.0232
- viability ([10]; 5 µM): 0.0139
- viability ([11]; 0.008 µM): 0.814
- viability ([11]; 0.04 µM): 0.596
- viability ([11]; 0.2 µM): 0.434
- viability ([11]; 1 µM): 0.0583
- viability ([11]; 5 µM): 0.0225
- viability ([12]; 0.008 µM): 0.818
- viability ([12]; 0.04 µM): 0.384
- viability ([12]; 0.2 µM): 0.203
- viability ([12]; 1 µM): 0.041
- viability ([12]; 5 µM): 0.0174
- viability ([13]; 0.008 µM): 0.995
- viability ([13]; 0.04 µM): 1.01
- viability ([13]; 0.2 µM): 1.09
- viability ([13]; 1 µM): 0.167
- viability ([13]; 5 µM): 0.0158
- viability ([14]; 0.008 µM): 0.978
- viability ([14]; 0.04 µM): 0.869
- viability ([14]; 0.2 µM): 0.821
- viability ([14]; 1 µM): 0.729
- viability ([14]; 5 µM): 0.234
